Assay results taken from PubChem BioAssay (NCI).
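Abbreviation: GI50, concentration required for 50% inhibition of growth. TGI denotes the concentration required for complete inhibition of growth.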

Assays:
Assay in all cases: NCI anticancer screen, dose series, 384-well format
MDA-MB-468 breast = tested on: MDA-MB-468 breast
SW-620 colon = tested on: SW-620 colon
HCT-15 colon = tested on: HCT-15 colon
SF-539 CNS = tested on: SF-539 CNS
CAKI-1 renal = tested on: CAKI-1 renal
DU-145 prostate = tested on: DU-145 prostate
K-562 leukemia = tested on: K-562 leukemia
SR leukemia = tested on: SR leukemia
HT29 colon = tested on: HT29 colon
COLO 205 colon = tested on: COLO 205 colon
MCF7 breast = tested on: MCF7 breast
NCI-H322M lung = tested on: NCI-H322M lung
NCI-H522 lung = tested on: NCI-H522 lung
LOX IMVI melanoma = tested on: LOX IMVI melanoma
SF-268 CNS = tested on: SF-268 CNS
KM12 colon = tested on: KM12 colon
SNB-19 CNS = tested on: SNB-19 CNS
SK-MEL-5 melanoma = tested on: SK-MEL-5 melanoma
PC-3 prostate = tested on: PC-3 prostate
MDA-MB-435 melanoma = tested on: MDA-MB-435 melanoma
HOP-62 NSCLC = tested on: HOP-62 NSCLC
MDA-MB-231 breast = tested on: MDA-MB-231 breast
T-47D breast = tested on: T-47D breast
NCI-H226 lung = tested on: NCI-H226 lung
SNB-75 CNS = tested on: SNB-75 CNS
HCC-2998 colon = tested on: HCC-2998 colon
OVCAR-4 ovarian = tested on: OVCAR-4 ovarian
786-0 renal = tested on: 786-0 renal
SN12C renal = tested on: SN12C renal
RPMI-8226 leukemia = tested on: RPMI-8226 leukemia
HS 578T breast = tested on: HS 578T breast
BT-549 breast = tested on: BT-549 breast
A498 renal = tested on: A498 renal
SK-MEL-28 melanoma = tested on: SK-MEL-28 melanoma
SK-OV-3 ovarian = tested on: SK-OV-3 ovarian
IGROV1 ovarian = tested on: IGROV1 ovarian
HOP-92 NSCLC = tested on: HOP-92 NSCLC
NCI-H460 NSCLC = tested on: NCI-H460 NSCLC
OVCAR-3 ovarian = tested on: OVCAR-3 ovarian
UO-31 renal = tested on: UO-31 renal
SF-295 CNS = tested on: SF-295 CNS
CCRF-CEM leukemia = tested on: CCRF-CEM leukemia
ACHN renal = tested on: ACHN renal
UACC-257 melanoma = tested on: UACC-257 melanoma
MALME-3M melanoma = tested on: MALME-3M melanoma
TK-10 renal = tested on: TK-10 renal
MOLT-4 leukemia = tested on: MOLT-4 leukemia
NCI/ADR-RES ovarian = tested on: NCI/ADR-RES ovarian
UACC-62 melanoma = tested on: UACC-62 melanoma
A549 NSCLC = tested on: A549 NSCLC
NCI-H23 lung = tested on: NCI-H23 lung
OVCAR-8 ovarian = tested on: OVCAR-8 ovarian
OVCAR-5 ovarian = tested on: OVCAR-5 ovarian
EKVX NSCLC = tested on: EKVX NSCLC
RXF 393 renal = tested on: RXF 393 renal
HL-60(TB) leukemia = tested on: HL-60(TB) leukemia
M14 melanoma = tested on: M14 melanoma

C[C@@H](CO)NC(=O)c1cc(-c2ccc(Cl)cc2)nn(-c2cnn(C)c2)c1=O
GI50 (MDA-MB-468 breast): 16.7 µM
TGI (MDA-MB-468 breast): 32 µM
GI50 (SW-620 colon): 38.8 µM
TGI (SW-620 colon): > 100 µM
GI50 (HCT-15 colon): 27.1 µM
TGI (HCT-15 colon): > 100 µM
GI50 (SF-539 CNS): 19.4 µM
TGI (SF-539 CNS): 51.7 µM
GI50 (CAKI-1 renal): 17.7 µM
TGI (CAKI-1 renal): 49.2 µM
GI50 (DU-145 prostate): 16.9 µM
TGI (DU-145 prostate): 36 µM
GI50 (K-562 leukemia): 18.5 µM
TGI (K-562 leukemia): 34.3 µM
GI50 (SR leukemia): 10.7 µM
TGI (SR leukemia): 22.7 µM
GI50 (HT29 colon): 25.9 µM
TGI (HT29 colon): > 100 µM
GI50 (COLO 205 colon): 23.7 µM
TGI (COLO 205 colon): 87.2 µM
GI50 (MCF7 breast): 15.8 µM
TGI (MCF7 breast): 29.4 µM
GI50 (NCI-H322M lung): 23.5 µM
TGI (NCI-H322M lung): 64 µM
GI50 (NCI-H522 lung): 16.9 µM
TGI (NCI-H522 lung): 31.2 µM
GI50 (LOX IMVI melanoma): 17.1 µM
TGI (LOX IMVI melanoma): 30.9 µM
GI50 (SF-268 CNS): 22.6 µM
TGI (SF-268 CNS): 70.7 µM
GI50 (KM12 colon): 35.2 µM
TGI (KM12 colon): > 100 µM
GI50 (SNB-19 CNS): 27.8 µM
TGI (SNB-19 CNS): 88.5 µM
GI50 (SK-MEL-5 melanoma): 12.6 µM
TGI (SK-MEL-5 melanoma): 25.3 µM
GI50 (PC-3 prostate): 24.4 µM
TGI (PC-3 prostate): 62.7 µM
GI50 (MDA-MB-435 melanoma): 27.7 µM
TGI (MDA-MB-435 melanoma): 80.1 µM
GI50 (HOP-62 NSCLC): 17 µM
TGI (HOP-62 NSCLC): 40 µM
GI50 (MDA-MB-231 breast): 30 µM
TGI (MDA-MB-231 breast): > 100 µM
GI50 (T-47D breast): 26.9 µM
TGI (T-47D breast): 67.9 µM
GI50 (NCI-H226 lung): 16.8 µM
TGI (NCI-H226 lung): 35 µM
GI50 (SNB-75 CNS): 25.8 µM
TGI (SNB-75 CNS): 93.1 µM
GI50 (HCC-2998 colon): 23.5 µM
TGI (HCC-2998 colon): 53.4 µM
GI50 (OVCAR-4 ovarian): 25.5 µM
TGI (OVCAR-4 ovarian): 69.6 µM
GI50 ([…]-0 renal): 17.1 µM
TGI (786-0 renal): 61.3 µM
GI50 (SN12C renal): 24.3 µM
TGI (SN12C renal): 78.6 µM
GI50 (RPMI-8226 leukemia): 13.8 µM
TGI (RPMI-8226 leukemia): 27 µM
GI50 (HS 578T breast): 17.2 µM
TGI (HS 578T breast): 36.9 µM
GI50 (BT-549 breast): 16.1 µM
TGI (BT-549 breast): 33.8 µM
GI50 (A498 renal): 14.4 µM
TGI (A498 renal): 28.7 µM
GI50 (SK-MEL-28 melanoma): 21.9 µM
TGI (SK-MEL-28 melanoma): 49.7 µM
GI50 (SK-OV-3 ovarian): 27.3 µM
TGI (SK-OV-3 ovarian): 72.7 µM
GI50 (IGROV1 ovarian): 18.3 µM
TGI (IGROV1 ovarian): 42.4 µM
GI50 (HOP-92 NSCLC): 10.2 µM
TGI (HOP-92 NSCLC): 43.7 µM
GI50 (NCI-H460 NSCLC): 13.8 µM
TGI (NCI-H460 NSCLC): 33.4 µM
GI50 (OVCAR-3 ovarian): 22.6 µM
TGI (OVCAR-3 ovarian): 50.7 µM
GI50 (UO-31 renal): 27.1 µM
TGI (UO-31 renal): > 100 µM
GI50 (SF-295 CNS): 18.5 µM
TGI (SF-295 CNS): 41.2 µM
GI50 (CCRF-CEM leukemia): 13.4 µM
TGI (CCRF-CEM leukemia): 29.7 µM
GI50 (ACHN renal): 15.5 µM
TGI (ACHN renal): 35.4 µM
GI50 (UACC-257 melanoma): 24.9 µM
TGI (UACC-257 melanoma): 40.1 µM
GI50 (MALME-3M melanoma): 13.4 µM
TGI (MALME-3M melanoma): 34.1 µM
GI50 (TK-10 renal): 16.7 µM
TGI (TK-10 renal): 63.3 µM
GI50 (MOLT-4 leukemia): 1.87 µM
TGI (MOLT-4 leukemia): 3.63 µM
GI50 (NCI/ADR-RES ovarian): 19.3 µM
TGI (NCI/ADR-RES ovarian): 44.4 µM
GI50 (UACC-62 melanoma): 11.5 µM
TGI (UACC-62 melanoma): 23.7 µM
GI50 (A549 NSCLC): 17.7 µM
TGI (A549 NSCLC): 37.5 µM
GI50 (NCI-H23 lung): 24.8 µM
TGI (NCI-H23 lung): 60.7 µM
GI50 (OVCAR-8 ovarian): 23.7 µM
TGI (OVCAR-8 ovarian): 95.9 µM
GI50 (OVCAR-5 ovarian): 32.2 µM
TGI (OVCAR-5 ovarian): > 100 µM
GI50 (EKVX NSCLC): 27.3 µM
TGI (EKVX NSCLC): 77.9 µM
GI50 (RXF 393 renal): 15.2 µM
TGI (RXF 393 renal): 53.4 µM
GI50 (HL-60(TB) leukemia): 16.5 µM
TGI (HL-60(TB) leukemia): 30.1 µM
GI50 (M14 melanoma): 27.1 µM
TGI (M14 melanoma): 60.5 µM
